The source of these data is US20160002596A1, “COMPOSITION FOR EX VIVO CULTURING OF A CORNEAL ENDOTHELIAL CELL AND A METHOD FOR USING THE COMPOSITION” (National Taiwan University, priority 2014, published 2016).

Holding throughout (format): cell-based, bovine
The subject of assay [1] is active beta-catenin (ABC). As to the kind of experiment: Western blot of active beta-catenin (ABC) expression in corneal endothelial cells. Here is the method:
With reference to FIG. 5, FIG. 5 was the Western blot analysis showing the expression level of active beta-catenin (ABC) in corneal endothelial cells treated with different concentrations of Marimastat or ADAM10 (ADAM metallopeptidase domain 10) specific inhibitor GI254023X. In group 1-3, the corneal endothelial cells were incubated in the SHEM added with 100 nM, 1 uM or 10 uM of GI254023X, respectively. In group 4-6, cells were incubated in the SHEM added with 100 nM, 1 uM or 10 uM of Marimastat, respectively. In group 1-3, there was no reduction in the expression level of ABC in the presence of ADAM10 specific inhibitor, GI254023X. In group 4, ABC expression level was high despite 100 nM of Marimastat.

Assay [2] concerns corneal endothelial cells. Put plainly: Growth / proliferation of ex vivo cultured corneal endothelial cells. From the text: Y-27632 is a known growth stimulator for corneal endothelial cells that is able to increase the ex vivo cell proliferation.
Assay [3] relates to corneal endothelial cells. Put plainly: Phenotype (cell shape) of ex vivo cultured corneal endothelial cells, immunofluorescence staining against active beta-catenin.

In the case of `CNC(=O)[C@@H](NC(=O)[C@H](CCCc1ccccc1)[C@H](C)N(O)C=O)C(C)(C)C` [GI254023X], the “expression level of active beta-catenin (ABC)” value in assay [1] (group 1-3: 100 nM, 1 uM or 10 uM in SHEM) is on record as “no reduction”.

As to `C[C@@H](N)[C@H]1CC[C@H](C(=O)Nc2ccncc2)CC1` [Y-27632], the “proliferation of corneal endothelial cells” value in assay [2] (group 3 or 5: SHEM with 10 uM Y-27632) was “enhanced proliferation”. The “cell shape of cultured corneal endothelial cells” value in assay [3] (group 3 or 5: SHEM with 10 uM Y-27632 (9 days, or first 3 days only)) was “elongated and fibroblast-like”.

For `CNC(=O)[C@@H](NC(=O)[C@H](CC(C)C)[C@H](O)C(=O)NO)C(C)(C)C` [Marimastat], in assay [2] (groups 2, 4 and 6: 10 uM MMPI added in the SHEM), the “cell growth of corneal endothelial cells” value is on record as “not obviously inhibited or reduced”. For the same molecule, the “cell morphology of cultured corneal endothelial cells” value in assay [3] (group 2 or 4: SHEM with 10 uM MMPI (without or with 10 uM Y-27632) for 9 days) was “maintained hexagonal morphology”. Moreover, the “expression level of active beta-catenin (ABC)” value is on record as “high” in assay [1] (group 4: 100 nM in SHEM) and “significantly reduced” in assay [1] (more than 1 uM in SHEM (groups 5-6: 1 uM, 10 uM)).
